Laboratory results taken from US20250197387A1, “BCL-XL DEGRADERS AND USES THEREOF” (Kymera Therapeutics, Inc., priority 2021, published 2025).
Like-named read-outs stand apart in the source and are kept apart here.

Assays:
Format in all cases: cell-based
BCL-XL = target: T1, BCL-XL (Homo sapiens, UniProt Q07817); assay: Bcl-xL ELISA degradation in MOLT-4 cells, 6 h; conditions: for DC50: read-out: Bcl-xL ELISA in MOLT-4 degradation 6 h: Mean external-Abs DC50
T1 construct: endogenous in cells; host or cells: MOLT-4
Description: The letter codes for BCL-XL DC50 include: A (<0.01 μM); B (0.01-0.1 μM); C (>[…]); D (>0.5-1.0 μM); and E (>1.0 μM). The letter codes for Dmax % include A (>75%); B (50 to 75%); C (<50%).

Caki-2 cells = assay: CTG (CellTiter-Glo) cell viability assay, Caki-2; conditions: Homo sapiens, 72 h, 3 day incubation, read-out: CTG Chempartner - Caki-2 3 day: Average external-IC50
In short: (§1)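 IC50 is from a three-parameter logistic fit of CellTiter-Glo luminescence after 3-day treatment of cells seeded at 10,000 per well. Codes: MOLT-4 A <0.1, B 0.1-1.0, C >1.0-3.0, D >3.0 μM; Caki-2 A <0.1, B 0.1-1.0, C >1.0-10.0, D >10.0 μM.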

MOLT-4 cells = assay: CTG (CellTiter-Glo) cell viability assay, MOLT-4; conditions: Homo sapiens, 3 day incubation, read-out: CTG Cell Viability Assay - MOLT-4 3 day: Average external-IC50
In short: as §1

T1 sequence (Q07817 whole entry): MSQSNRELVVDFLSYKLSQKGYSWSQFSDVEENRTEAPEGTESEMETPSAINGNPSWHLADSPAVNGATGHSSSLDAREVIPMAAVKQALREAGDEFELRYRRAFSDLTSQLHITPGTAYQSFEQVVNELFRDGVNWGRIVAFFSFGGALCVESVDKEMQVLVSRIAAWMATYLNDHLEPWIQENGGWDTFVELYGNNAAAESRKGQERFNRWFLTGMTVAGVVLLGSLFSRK

| Structure (SMILES) | Dmax (BCL-XL) [%] | DC50 (BCL-XL) [µM] | IC50 (Caki-2 cells) [µM] | IC50 (MOLT-4 cells; MOLT-4, 72 h) [µM] | IC50 (MOLT-4 cells; 72 h) [µM] |
| --- | --- | --- | --- | --- | --- |
| Cc1cc(N(C)c2ccc(-c3cnn(CC4CCCCC4)c3C)c(C(=O)NS(=O)(=O)CCCCCC(=O)N[C@H](C(=O)N3C[C@H](O)C[C@H]3C(=O)N[C@@H](C)c3ccc(-c4scnc4C)cc3)C(C)(C)C)n2)nnc1Nc1nc2cccnc2s1 [I-436] | > 75 | 0.5 to 1 | > 10 | 1 to 3 |  |
| Cc1cc(N(C)c2ccc(-c3cnn(CC45CC6CC(CC(C6)C4)C5)c3C)c(C(=O)NS(=O)(=O)c3ccc(N4CC(C(=O)N[C@H](C(=O)N5C[C@H](O)C[C@H]5C(=O)NCc5ccc(-c6scnc6C)cc5)C(C)(C)C)C4)cc3)n2)nnc1Nc1nc2ccccc2s1 [I-437] | > 75 | 0.01 to 0.1 | > 10 | < 0.1 |  |
| C#Cc1ccc([C@H](C)NC(=O)[C@@H]2C[C@@H](O)CN2C(=O)[C@@H](NC(=O)C2CN(c3ccc(S(=O)(=O)NC(=O)c4nc(N(C)c5cc(C)c(Nc6nc7ccccc7s6)nn5)ccc4-c4cnn(CC56CC7CC(CC(C7)C5)C6)c4C)cc3)C2)C(C)(C)C)cc1 [I-438] | > 75 | < 0.01 | > 10 | < 0.1 |  |
| C#Cc1ccc(CNC(=O)[C@@H]2C[C@@H](O)CN2C(=O)[C@@H](NC(=O)C2CN(c3ccc(S(=O)(=O)NC(=O)c4nc(N(C)c5cc(C)c(Nc6nc7ccccc7s6)nn5)ccc4-c4cnn(CC56CC7CC(CC(C7)C5)C6)c4C)cc3)C2)C(C)(C)C)cc1 [I-440] | > 75 | < 0.01 | > 10 | < 0.1 |  |
| Cc1ncsc1-c1ccc([C@H](C)NC(=O)[C@@H]2C[C@@H](O)CN2C(=O)[C@@H](NC(=O)CCCCCS(=O)(=O)NC(=O)c2nc(N3CCc4cccc(C(=O)Nc5nc6ccccc6s5)c4C3)ccc2-c2cnn(CC3CCCC3)c2C)C(C)(C)C)cc1 [I-442] | > 75 | 0.01 to 0.1 | > 10 | < 0.1 |  |
| Cc1cc(N(C)c2ccc(-c3cnn(CC4CCCC4)c3C)c(C(=O)NS(=O)(=O)CCCCCC(=O)N[C@H](C(=O)N3C[C@H](O)C[C@H]3C(=O)N[C@@H](C)c3ccc(-c4scnc4C)cc3)C(C)(C)C)n2)nnc1Nc1nc2ccccc2s1 [I-443] | > 75 | 0.1 to 0.5 | > 10 | > 3 |  |
| C#Cc1ccc(CNC(=O)[C@@H]2C[C@@H](O)CN2C(=O)[C@@H](NC(=O)CCCCCS(=O)(=O)NC(=O)c2nc(N3CCc4cccc(C(=O)Nc5nc6ccccc6s5)c4C3)ccc2-c2cnn(CC3CCCC3)c2C)C(C)(C)C)cc1 [I-444] | > 75 | < 0.01 | > 10 | < 0.1 |  |
| C#Cc1ccc(CNC(=O)[C@@H]2C[C@@H](O)CN2C(=O)[C@@H](NC(=O)CCCCCS(=O)(=O)NC(=O)c2nc(N3CCc4cccc(C(=O)Nc5nc6cccnc6s5)c4C3)ccc2-c2cnn(CC3CCCC3)c2C)C(C)(C)C)cc1 [I-445] | > 75 | 0.01 to 0.1 | > 10 | 0.1 to 1 |  |
| C#Cc1ccc(CNC(=O)[C@@H]2C[C@@H](O)CN2C(=O)[C@@H](NC(=O)CCCCCS(=O)(=O)NC(=O)c2nc(N(C)c3cc(C)c(Nc4nc5cccnc5s4)nn3)ccc2-c2cnn(CC34CC5CC(CC(C5)C3)C4)c2C)C(C)(C)C)cc1 [I-446] | > 75 | 0.01 to 0.1 | > 10 | 0.1 to 1 |  |
| C#Cc1ccc([C@H](C)NC(=O)[C@@H]2C[C@@H](O)CN2C(=O)[C@@H](NC(=O)CCCCCS(=O)(=O)NC(=O)c2nc(N(C)c3cc(C)c(Nc4nc5cccnc5s4)nn3)ccc2-c2cnn(CC34CC5CC(CC(C5)C3)C4)c2C)C(C)(C)C)cc1 [I-447] | > 75 | 0.01 to 0.1 | > 10 | 0.1 to 1 |  |
| Cc1cc(N(C)c2ccc(-c3cnn(CC45CC6CC(CC(C6)C4)C5)c3C)c(C(=O)NS(=O)(=O)CC3CCN(CC(=O)N[C@H](C(=O)N4C[C@H](O)C[C@H]4C(=O)N[C@@H](C)c4ccc(-c5scnc5C)cc4)C(C)(C)C)CC3)n2)nnc1Nc1nc2cccnc2s1 [I-449] | > 75 | 0.1 to 0.5 | > 10 |  | > 3 |
| Cc1cc(N(C)c2ccc(-c3cnn(CC45CC6CC(CC(C6)C4)C5)c3C)c(C(=O)NS(=O)(=O)CCCCCC(=O)N[C@H](C(=O)N3C[C@H](O)C[C@H]3C(=O)NCc3ccc(-c4scnc4C)cc3)C(C)(C)C)n2)nnc1Nc1nc2cccnc2s1 [I-451] | > 75 | 0.01 to 0.1 | > 10 | 0.1 to 1 |  |
| Cc1cc(N(C)c2ccc(-c3cnn(CC45CC6CC(CC(C6)C4)C5)c3C)c(C(=O)NS(=O)(=O)CCCC(=O)N[C@H](C(=O)N3C[C@H](O)C[C@H]3C(=O)N[C@@H](C)c3ccc(-c4scnc4C)cc3)C(C)(C)C)n2)nnc1Nc1nc2cccnc2s1 [I-452] | > 75 | 0.1 to 0.5 | > 10 | 1 to 3 |  |
| C#Cc1ccc(CNC(=O)[C@@H]2C[C@@H](O)CN2C(=O)[C@@H](NC(=O)CCCCS(=O)(=O)NC(=O)c2nc(N(C)c3cc(C)c(Nc4nc5cccnc5s4)nn3)ccc2-c2cnn(CC34CC5CC(CC(C5)C3)C4)c2C)C(C)(C)C)cc1 [I-453] | > 75 | 0.1 to 0.5 | > 10 | > 3 |  |
| C#Cc1ccc([C@H](C)NC(=O)[C@@H]2C[C@@H](O)CN2C(=O)[C@@H](NC(=O)CCCCS(=O)(=O)NC(=O)c2nc(N(C)c3cc(C)c(Nc4nc5cccnc5s4)nn3)ccc2-c2cnn(CC34CC5CC(CC(C5)C3)C4)c2C)C(C)(C)C)cc1 [I-454] | > 75 | 0.01 to 0.1 | > 10 | 1 to 3 |  |
| Cc1cc(N(C)c2ccc(-c3cnn(CC(C)(C)C)c3C)c(C(=O)NS(=O)(=O)c3ccc(N4CCC(C(=O)N[C@H](C(=O)N5C[C@H](O)C[C@H]5C(=O)N[C@@H](C)c5ccc(-c6scnc6C)cc5)C(C)(C)C)CC4)cc3)n2)nnc1Nc1nc2cccnc2s1 [I-456] | < 50 | > 1 | > 10 | > 3 |  |
| Cc1cc(N(C)c2ccc(-c3cnn(CC4CCCC4)c3C)c(C(=O)NS(=O)(=O)c3ccc(N4CCC(C(=O)N[C@H](C(=O)N5C[C@H](O)C[C@H]5C(=O)N[C@@H](C)c5ccc(-c6scnc6C)cc5)C(C)(C)C)CC4)cc3)n2)nnc1Nc1nc2cccnc2s1 [I-457] | 50 to 75 | 0.5 to 1 | > 10 | 1 to 3 |  |
| Cc1ncsc1-c1ccc([C@H](C)NC(=O)[C@@H]2C[C@@H](O)CN2C(=O)[C@@H](NC(=O)CCCCCS(=O)(=O)NC(=O)c2nc(N3CCc4cccc(C(=O)Nc5nc6c(F)cccc6s5)c4C3)ccc2-c2cnn(CC3CCCCC3)c2C)C(C)(C)C)cc1 [I-459] | > 75 | < 0.01 | > 10 | < 0.1 |  |
| Cc1cnc(NC(=O)c2cccc3c2CN(c2ccc(-c4cnn(CC5CCCCC5)c4C)c(C(=O)NS(=O)(=O)CCCCCC(=O)N[C@H](C(=O)N4C[C@H](O)C[C@H]4C(=O)N[C@@H](C)c4ccc(-c5scnc5C)cc4)C(C)(C)C)n2)CC3)s1 [I-460] | > 75 | 0.01 to 0.1 | > 10 | < 0.1 |  |
| Cc1ncsc1-c1ccc([C@H](C)NC(=O)[C@@H]2C[C@@H](O)CN2C(=O)[C@@H](NC(=O)COCCOCCS(=O)(=O)NC(=O)c2nc(N3CCc4cccc(C(=O)Nc5nc6ccccc6s5)c4C3)ccc2-c2cnn(CC3CCCCC3)c2C)C(C)(C)C)cc1 [I-463] | > 75 | 0.01 to 0.1 | 1 to 10 | < 0.1 |  |
| Cc1cc(N(C)c2ccc(-c3cnn(CC45CC6CC(CC(C6)C4)C5)c3C)c(C(=O)NS(=O)(=O)CCCCCC(=O)N[C@H](C(=O)N3C[C@H](O)C[C@H]3C(=O)N[C@@H](C)c3ccc(C#N)cc3)C(C)(C)C)n2)nnc1Nc1nc2ccccc2s1 [I-464] | > 75 | 0.01 to 0.1 | > 10 | 0.1 to 1 |  |
| Cc1ncsc1-c1ccc([C@H](C)NC(=O)[C@@H]2C[C@@H](O)CN2C(=O)[C@@H](NC(=O)CCCCCS(=O)(=O)NC(=O)c2nc(N3CCc4cccc(C(=O)Nc5nc6ccccc6s5)c4C3)ccc2-c2cnn(CC(C)(C)C)c2C)C(C)(C)C)cc1 [I-465] | > 75 | 0.01 to 0.1 | > 10 | 0.1 to 1 |  |
| Cc1ncsc1-c1ccc([C@H](C)NC(=O)[C@@H]2C[C@@H](O)CN2C(=O)[C@@H](NC(=O)CCCCCS(=O)(=O)NC(=O)c2nc(N3CCc4cccc(C(=O)Nc5nc6cccnc6s5)c4C3)ccc2-c2cnn(CC(C)(C)C)c2C)C(C)(C)C)cc1 [I-466] | > 75 | 0.1 to 0.5 | > 10 | 1 to 3 |  |
| Cc1ncsc1-c1ccc(CNC(=O)[C@@H]2C[C@@H](O)CN2C(=O)[C@@H](NC(=O)CCCCCS(=O)(=O)NC(=O)c2nc(N3CCc4cccc(C(=O)Nc5nc6cccnc6s5)c4C3)ccc2-c2cnn(CC(C)(C)C)c2C)C(C)(C)C)cc1 [I-467] | > 75 | 0.1 to 0.5 | > 10 | 1 to 3 |  |
| C#Cc1ccc(CNC(=O)[C@@H]2C[C@@H](O)CN2C(=O)[C@@H](NC(=O)CCCCCS(=O)(=O)NC(=O)c2nc(N3CCc4cccc(C(=O)Nc5nc6ccccc6s5)c4C3)ccc2-c2cnn(CC(C)(C)C)c2C)C(C)(C)C)cc1 [I-471] | > 75 | 0.01 to 0.1 | > 10 | < 0.1 |  |
| C#Cc1ccc([C@H](C)NC(=O)[C@@H]2C[C@@H](O)CN2C(=O)[C@@H](NC(=O)CCCCCS(=O)(=O)NC(=O)c2nc(N(C)c3cc(C)c(Nc4nc5ccccc5s4)nn3)ccc2-c2cnn(CC(C)(C)C)c2C)C(C)(C)C)cc1 [I-473] | > 75 | 0.5 to 1 | > 10 | 1 to 3 |  |
